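Each compound was tested at five concentrations against cells in 96-well plates for 48 hours. The concentration for 50% growth inhibition is given as GI50. TGI denotes the concentration required for complete inhibition of growth.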
system: XF 498 CNS; assay: NCI tumour cell line growth inhibition, 48 h

Row | SMILES | TGI [µM]
1 | CC1C=C(CCCCCCCCCCCC[C@@H](O)[C@@H]2CC[C@@H]([C@@H]3CC[C@@H](C(O)CCCCCCCCCCCCC4=C[C@H](C)OC4=O)O3)O2)C(=O)O1 (some centres not stated) | > 100
2 | COc1cc([C@@H]2OCC3C(c4ccc5c(c4)OCO5)OCC32)cc(OC)c1OC (some centres not stated) | > 100
3 | N#CN=C(N(Cc1ccccc1)Cc1ccccc1)N(Cc1ccccc1)Cc1ccccc1 | 89.8
4 | CNC(=O)C(C)C1CCC2(C)C=CC(=O)C(C)=C2C1O (configuration not stated) | > 100
5 | C[n+]1c2ccccc2c(/C=N\NS(=O)(=O)c2ccc(O)c(C(=O)O)c2)c2ccccc21 | 83.8
6 | O=C(Nc1ccc(C2=NCCN2)cc1)c1cncc(C(=O)Nc2ccc(C3=NCCN3)cc2)c1 | > 100
7 | CC(C)CCCCCCCCCCCCC(=O)NCC(=O)NC1C(C)OC(Nc2ncnc3c2ncn3C)C(O)C1O (configuration not stated) | > 62
8 | Cc1c2cnccc2c(C)c2c1c1ccccc1n2CCCN | 1.4
9 | CCC12C=CCN3CCC4(C(=C(C(=O)OC)[C@@H]1O)Nc1ccccc14)C32 (some centres not stated) | 3.05
10 | COc1nc(N)c(C(=O)CCl)c(=O)n1C | 32.6
11 | O=C1CCC23CC(C=CC=C12)n1c(=O)n(-c2ccccc2)c(=O)n13 (configuration not stated) | > 100
12 | CC(=O)NC1=C(NCCC(C)C)C(=O)c2ccccc2C1=O | > 50

system: P388 leukemia; assay: NCI tumour cell line growth inhibition, 48 h

Row | SMILES | TGI [µM]
13 | CNC(=O)C(C)C1CCC2(C)C=CC(=O)C(C)=C2C1O (configuration not stated) | > 100
14 | O=C(Nc1ccc(C2=NCCN2)cc1)c1cncc(C(=O)Nc2ccc(C3=NCCN3)cc2)c1 | 82.5
15 | CC(C)CCCCCCCCCCCCC(=O)NCC(=O)NC1C(C)OC(Nc2ncnc3c2ncn3C)C(O)C1O (configuration not stated) | > 100
16 | Cc1c2cnccc2c(C)c2c1c1ccccc1n2CCCN | 0.212
17 | O=C1CCC23CC(C=CC=C12)n1c(=O)n(-c2ccccc2)c(=O)n13 (configuration not stated) | > 100

system: SN12K1 renal; assay: NCI tumour cell line growth inhibition, 48 h

Row | SMILES | TGI [µM]
18 | CNC(=O)C(C)C1CCC2(C)C=CC(=O)C(C)=C2C1O (configuration not stated) | > 100
19 | O=C(Nc1ccc(C2=NCCN2)cc1)c1cncc(C(=O)Nc2ccc(C3=NCCN3)cc2)c1 | > 100
20 | CC(C)CCCCCCCCCCCCC(=O)NCC(=O)NC1C(C)OC(Nc2ncnc3c2ncn3C)C(O)C1O (configuration not stated) | > 100
21 | Cc1c2cnccc2c(C)c2c1c1ccccc1n2CCCN | 0.831
22 | O=C1CCC23CC(C=CC=C12)n1c(=O)n(-c2ccccc2)c(=O)n13 (configuration not stated) | > 100

system: DMS 273 small cell lung; assay: NCI tumour cell line growth inhibition, 48 h

Row | SMILES | TGI [µM] | GI50 [µM]
23 | CC1C=C(CCCCCCCCCCCC[C@@H](O)[C@@H]2CC[C@@H]([C@@H]3CC[C@@H](C(O)CCCCCCCCCCCCC4=C[C@H](C)OC4=O)O3)O2)C(=O)O1 (some centres not stated) | > 100 | –
24 | COc1cc([C@@H]2OCC3C(c4ccc5c(c4)OCO5)OCC32)cc(OC)c1OC (some centres not stated) | > 100 | –
25 | CNC(=O)C(C)C1CCC2(C)C=CC(=O)C(C)=C2C1O (configuration not stated) | > 58.1 | –
26 | C[n+]1c2ccccc2c(/C=N\NS(=O)(=O)c2ccc(O)c(C(=O)O)c2)c2ccccc21 | > 100 | –
27 | O=C(Nc1ccc(C2=NCCN2)cc1)c1cncc(C(=O)Nc2ccc(C3=NCCN3)cc2)c1 | > 100 | –
28 | CC(=O)Nc1ccc(-c2nnc(SCC(=O)Nc3ccc([N+](=O)[O-])cc3)o2)cc1 | 22.6 | –
29 | N.N.N.N.O=[N+]([O-])[O-].[Co+3].[N-]=[N+]=[N-].[N-]=[N+]=[N-] | > 100 | > 100
30 | Cc1cc(=O)[nH]c(NN2C(Cl)C(=O)C2c2ccccc2O)n1 (configuration not stated) | 15.3 | –
31 | CC(C)CCCCCCCCCCCCC(=O)NCC(=O)NC1C(C)OC(Nc2ncnc3c2ncn3C)C(O)C1O (configuration not stated) | 21.6 | –
32 | Cc1c2cnccc2c(C)c2c1c1ccccc1n2CCCN | 0.619 | –
33 | CCC12C=CCN3CCC4(C(=C(C(=O)OC)[C@@H]1O)Nc1ccccc14)C32 (some centres not stated) | 3.37 | –
34 | O=C1CCC23CC(C=CC=C12)n1c(=O)n(-c2ccccc2)c(=O)n13 (configuration not stated) | > 100 | –
35 | [N-]=[N+]=Nc1cc(=O)oc2ccccc12 | > 100 | –
36 | CC(=O)NC1=C(NCCC(C)C)C(=O)c2ccccc2C1=O | > 50 | –
37 | O=C([O-])CC(=O)[O-].O=C([O-])CC(=O)[O-].[K+].[Pd+2] | > 100 | > 100

system: DLD-1 colon; assay: NCI tumour cell line growth inhibition, 48 h

Row | SMILES | TGI [µM] | GI50 [µM]
38 | CC1C=C(CCCCCCCCCCCC[C@@H](O)[C@@H]2CC[C@@H]([C@@H]3CC[C@@H](C(O)CCCCCCCCCCCCC4=C[C@H](C)OC4=O)O3)O2)C(=O)O1 (some centres not stated) | > 100 | –
39 | COc1cc([C@@H]2OCC3C(c4ccc5c(c4)OCO5)OCC32)cc(OC)c1OC (some centres not stated) | > 100 | –
40 | N#CN=C(N(Cc1ccccc1)Cc1ccccc1)N(Cc1ccccc1)Cc1ccccc1 | > 100 | –
41 | CNC(=O)C(C)C1CCC2(C)C=CC(=O)C(C)=C2C1O (configuration not stated) | > 100 | –
42 | C[n+]1c2ccccc2c(/C=N\NS(=O)(=O)c2ccc(O)c(C(=O)O)c2)c2ccccc21 | > 100 | –
43 | O=C(Nc1ccc(C2=NCCN2)cc1)c1cncc(C(=O)Nc2ccc(C3=NCCN3)cc2)c1 | > 100 | –
44 | CC(=O)Nc1ccc(-c2nnc(SCC(=O)Nc3ccc([N+](=O)[O-])cc3)o2)cc1 | 26.4 | –
45 | N.N.N.N.O=[N+]([O-])[O-].[Co+3].[N-]=[N+]=[N-].[N-]=[N+]=[N-] | > 100 | > 100
46 | CC(C)CCCCCCCCCCCCC(=O)NCC(=O)NC1C(C)OC(Nc2ncnc3c2ncn3C)C(O)C1O (configuration not stated) | > 100 | –
47 | Cc1c2cnccc2c(C)c2c1c1ccccc1n2CCCN | 0.847 | –
48 | CCC12C=CCN3CCC4(C(=C(C(=O)OC)[C@@H]1O)Nc1ccccc14)C32 (some centres not stated) | 3.36 | –
49 | COc1nc(N)c(C(=O)CCl)c(=O)n1C | 27.6 | –
50 | O=C1CCC23CC(C=CC=C12)n1c(=O)n(-c2ccccc2)c(=O)n13 (configuration not stated) | > 100 | –
51 | [N-]=[N+]=Nc1cc(=O)oc2ccccc12 | > 100 | –
52 | CC(=O)NC1=C(NCCC(C)C)C(=O)c2ccccc2C1=O | > 50 | –
53 | O=C([O-])CC(=O)[O-].O=C([O-])CC(=O)[O-].[K+].[Pd+2] | > 100 | > 100

system: P388/ADR leukemia; assay: NCI tumour cell line growth inhibition, 48 h

Row | SMILES | TGI [µM]
54 | CNC(=O)C(C)C1CCC2(C)C=CC(=O)C(C)=C2C1O (configuration not stated) | > 100
55 | O=C(Nc1ccc(C2=NCCN2)cc1)c1cncc(C(=O)Nc2ccc(C3=NCCN3)cc2)c1 | > 100
56 | CC(C)CCCCCCCCCCCCC(=O)NCC(=O)NC1C(C)OC(Nc2ncnc3c2ncn3C)C(O)C1O (configuration not stated) | > 100
57 | Cc1c2cnccc2c(C)c2c1c1ccccc1n2CCCN | 0.707
58 | O=C1CCC23CC(C=CC=C12)n1c(=O)n(-c2ccccc2)c(=O)n13 (configuration not stated) | > 100

system: LXFL 529 NSCLC; assay: NCI tumour cell line growth inhibition, 48 h

Row | SMILES | TGI [µM] | GI50 [µM]
59 | CC1C=C(CCCCCCCCCCCC[C@@H](O)[C@@H]2CC[C@@H]([C@@H]3CC[C@@H](C(O)CCCCCCCCCCCCC4=C[C@H](C)OC4=O)O3)O2)C(=O)O1 (some centres not stated) | > 100 | –
60 | COc1cc([C@@H]2OCC3C(c4ccc5c(c4)OCO5)OCC32)cc(OC)c1OC (some centres not stated) | > 100 | –
61 | N#CN=C(N(Cc1ccccc1)Cc1ccccc1)N(Cc1ccccc1)Cc1ccccc1 | > 100 | –
62 | CC(=O)Nc1ccc(-c2nnc(SCC(=O)Nc3ccc([N+](=O)[O-])cc3)o2)cc1 | 20.4 | –
63 | N.N.N.N.O=[N+]([O-])[O-].[Co+3].[N-]=[N+]=[N-].[N-]=[N+]=[N-] | > 100 | > 100
64 | Cc1cc(=O)[nH]c(NN2C(Cl)C(=O)C2c2ccccc2O)n1 (configuration not stated) | 54.5 | –
65 | CCC12C=CCN3CCC4(C(=C(C(=O)OC)[C@@H]1O)Nc1ccccc14)C32 (some centres not stated) | 3.13 | –
66 | COc1nc(N)c(C(=O)CCl)c(=O)n1C | 27.1 | –
67 | [N-]=[N+]=Nc1cc(=O)oc2ccccc12 | > 100 | –
68 | CC(=O)NC1=C(NCCC(C)C)C(=O)c2ccccc2C1=O | > 50 | –
69 | O=C([O-])CC(=O)[O-].O=C([O-])CC(=O)[O-].[K+].[Pd+2] | > 100 | > 100

system: RXF-631 renal; assay: NCI tumour cell line growth inhibition, 48 h

Row | SMILES | TGI [µM]
70 | C[n+]1c2ccccc2c(/C=N\NS(=O)(=O)c2ccc(O)c(C(=O)O)c2)c2ccccc21 | > 100
71 | COc1nc(N)c(C(=O)CCl)c(=O)n1C | 31.6

system: HOP-18 NSCLC; assay: NCI tumour cell line growth inhibition, 48 h

Row | SMILES | TGI [µM] | GI50 [µM]
72 | CC1C=C(CCCCCCCCCCCC[C@@H](O)[C@@H]2CC[C@@H]([C@@H]3CC[C@@H](C(O)CCCCCCCCCCCCC4=C[C@H](C)OC4=O)O3)O2)C(=O)O1 (some centres not stated) | > 100 | –
73 | N#CN=C(N(Cc1ccccc1)Cc1ccccc1)N(Cc1ccccc1)Cc1ccccc1 | > 100 | –
74 | O=C(Nc1ccc(C2=NCCN2)cc1)c1cncc(C(=O)Nc2ccc(C3=NCCN3)cc2)c1 | > 100 | –
75 | CC(=O)Nc1ccc(-c2nnc(SCC(=O)Nc3ccc([N+](=O)[O-])cc3)o2)cc1 | 29.9 | –
76 | Cc1cc(=O)[nH]c(NN2C(Cl)C(=O)C2c2ccccc2O)n1 (configuration not stated) | 8.97 | –
77 | CC(C)CCCCCCCCCCCCC(=O)NCC(=O)NC1C(C)OC(Nc2ncnc3c2ncn3C)C(O)C1O (configuration not stated) | > 30.1 | –
78 | Cc1c2cnccc2c(C)c2c1c1ccccc1n2CCCN | 2.65 | –
79 | CCC12C=CCN3CCC4(C(=C(C(=O)OC)[C@@H]1O)Nc1ccccc14)C32 (some centres not stated) | 4.87 | –
80 | COc1nc(N)c(C(=O)CCl)c(=O)n1C | 31.2 | –
81 | O=C1CCC23CC(C=CC=C12)n1c(=O)n(-c2ccccc2)c(=O)n13 (configuration not stated) | > 100 | –
82 | [N-]=[N+]=Nc1cc(=O)oc2ccccc12 | > 100 | –
83 | O=C([O-])CC(=O)[O-].O=C([O-])CC(=O)[O-].[K+].[Pd+2] | > 100 | > 100

system: KM20L2 colon; assay: NCI tumour cell line growth inhibition, 48 h

Row | SMILES | TGI [µM] | GI50 [µM]
84 | CC1C=C(CCCCCCCCCCCC[C@@H](O)[C@@H]2CC[C@@H]([C@@H]3CC[C@@H](C(O)CCCCCCCCCCCCC4=C[C@H](C)OC4=O)O3)O2)C(=O)O1 (some centres not stated) | > 100 | –
85 | COc1cc([C@@H]2OCC3C(c4ccc5c(c4)OCO5)OCC32)cc(OC)c1OC (some centres not stated) | > 100 | –
86 | N#CN=C(N(Cc1ccccc1)Cc1ccccc1)N(Cc1ccccc1)Cc1ccccc1 | > 100 | –
87 | CNC(=O)C(C)C1CCC2(C)C=CC(=O)C(C)=C2C1O (configuration not stated) | > 100 | –
88 | C[n+]1c2ccccc2c(/C=N\NS(=O)(=O)c2ccc(O)c(C(=O)O)c2)c2ccccc21 | > 100 | –
89 | O=C(Nc1ccc(C2=NCCN2)cc1)c1cncc(C(=O)Nc2ccc(C3=NCCN3)cc2)c1 | > 100 | –
90 | CC(=O)Nc1ccc(-c2nnc(SCC(=O)Nc3ccc([N+](=O)[O-])cc3)o2)cc1 | 28.4 | –
91 | N.N.N.N.O=[N+]([O-])[O-].[Co+3].[N-]=[N+]=[N-].[N-]=[N+]=[N-] | > 100 | > 100
92 | Cc1cc(=O)[nH]c(NN2C(Cl)C(=O)C2c2ccccc2O)n1 (configuration not stated) | > 100 | –
93 | CC(C)CCCCCCCCCCCCC(=O)NCC(=O)NC1C(C)OC(Nc2ncnc3c2ncn3C)C(O)C1O (configuration not stated) | > 100 | –
94 | Cc1c2cnccc2c(C)c2c1c1ccccc1n2CCCN | 0.989 | –
95 | CCC12C=CCN3CCC4(C(=C(C(=O)OC)[C@@H]1O)Nc1ccccc14)C32 (some centres not stated) | 3.54 | –
96 | COc1nc(N)c(C(=O)CCl)c(=O)n1C | 50.1 | –
97 | CC(=O)NC1=C(NCCC(C)C)C(=O)c2ccccc2C1=O | > 50 | –
98 | O=C([O-])CC(=O)[O-].O=C([O-])CC(=O)[O-].[K+].[Pd+2] | > 100 | > 100

Reference: PubChem BioAssay (NCI)
